Results published in article PMC11047712, “Synergistic Antioxidant and Anti-Inflammatory Effects of Phenolic Acid-Conjugated Glutamine–Histidine–Glycine–Valine (QHGV) Peptides Derived from Oysters (Crassostrea talienwhanensis)” (Antioxidants, 2024).

Experiments:
phospho-JNK = assay: LPS-induced phosphorylation of JNK in RAW 264.7 cells (Western blot); format: cell-based, murine; conditions: peptide 500 µM 2 h, LPS 0.1 μg/mL 15 min, densitometry relative to JNK, n = 3
Experimental: HaCaT (3.0 × 10^5 cells/well) and RAW 264.7 (1.5 × 10^5 cells/well) cells were seeded in the wells of a six-well plate. […] The cells were then washed with cold PBS and lysed in a cold lysis buffer. Cell debris was removed after centrifugation at 12,000× g for 30 min at 4 °C. Protein concentration was determined using the bicinchoninic acid (BCA) protein assay. […] The membranes were blocked with 5% skimmed milk in Tris-buffered saline–Tween (TBS-T) at room temperature for 1 h. After washing, the membranes were incubated overnight in respective primary antibody solutions (anti-phospho-ERK, anti-phospho-JNK, anti-phospho-p38, anti-collagen I, anti-GAPDH or anti-β-actin antibodies) at 4 °C. The membranes were washed with TBS-T and incubated with a horseradish peroxidase-conjugated secondary antibody solution for 1 h at room temperature. They were washed again with TBS-T and PBS and developed using an enhanced chemiluminescence reagent. Images of the immunoblots were scanned with an iBright™ CL1500 Imaging System (Thermo Fisher Scientific, Waltham, MA, USA). The band intensities of phospho-ERK, phospho-JNK, phospho-p38, and collagen I proteins were quantified by densitometric analysis using the ImageJ software 1.8.0 (National Institutes of Health, NIH, Bethesda, MD, USA). […] The levels of collagen I were normalized to those of GAPDH. Images of raw Western blots are shown in the Supplementary Data.

[1] = ABTS radical scavenging activity test; format: biochemical
Experimental: The ABTS radical cation solution was prepared by mixing 1 mL of a 14 mM ABTS solution and 1 mL of 4.9 mM potassium persulfate. The mixture reacted in the dark at room temperature for 16 h. The ABTS solution was diluted with PBS (1:50, v/v), and 190 μL of it reacted with 10 μL of the sample solution in a 96-well plate at room temperature for 5 min. The absorbance at 734 nm was measured using a SpectraMax iD3 microplate reader (Molecular Devices, San Jose, CA, USA), and the ABTS radical scavenging activity rate was calculated using the following equation:ABTS radical scavenging activity (%) = 1 − (absorbance of sample/absorbance of water) × 100

[2] = test system: cyclooxygenase-2 (Cox-2) mRNA; assay: Cox-2 mRNA expression in LPS-induced RAW 264.7 cells (qRT-PCR); format: cell-based, murine; conditions: peptide 500 μM pretreated 2 h, LPS 0.1 μg/mL 24 h, normalized to Gapdh, n = 3
Experimental: (§1) The peptide and control groups were pretreated with 500 and 0 μM of the peptide solution, respectively, for 2 h, followed by stimulation with 0.1 μg/mL of LPS for 24 h. Total cellular RNA was isolated using the RNeasy Mini Kit (Qiagen, Santa Clara, CA, USA). Total RNA was used to synthesize complementary DNA (cDNA) using the PrimeScript™ 1st strand cDNA synthesis kit (TaKaRa, Kusatsu, Japan). […] The mRNA levels of iNos, Cox-2, and Col1a1 were normalized to that of Gapdh, which is a housekeeping gene. The mRNA levels were quantified using the 2^-ddCt method based on the Ct values.

[3] = test system: inducible nitric oxide synthase (iNos) mRNA; assay: iNos mRNA expression in LPS-induced RAW 264.7 cells (qRT-PCR); format: cell-based, murine; conditions: peptide 500 μM pretreated 2 h, LPS 0.1 μg/mL 24 h, normalized to Gapdh, n = 3
Experimental: as §1

[4] = test system: collagen I (COL1A1) protein; assay: Collagen I (COL1A1) protein level in HaCaT cells (Western blot); format: cell-based, human; conditions: peptide 500 µM, 24 h, Western blot densitometry normalized to GAPDH, n = 3
Experimental: HaCaT (3.0 × 10^5 cells/well) and RAW 264.7 (1.5 × 10^5 cells/well) cells were seeded in the wells of a six-well plate. HaCaT and RAW 264.7 cells were treated with the peptide solutions (500 µM) for 24 and 2 h, respectively, and then stimulated with LPS (0.1 μg/mL) for 15 min. The cells were then washed with cold PBS and lysed in a cold lysis buffer. Cell debris was removed after centrifugation at 12,000× g for 30 min at 4 °C. Protein concentration was determined using the bicinchoninic acid (BCA) protein assay. The four-times-concentrated protein-denaturing buffer (1.25 M Tris-HCl (pH 6.8), glycerol, SDS, 2-mercaptoethanol, and 0.4% bromophenol blue) was added to the cell lysate and the mixture was boiled at 100 °C for 5 min. Proteins were separated by electrophoresis on 10% (for MAPKs) or 12% (for collagen) sodium dodecyl sulfate-polyacrylamide gel and electroblotted onto polyvinylidene fluoride membranes. The membranes were blocked with 5% skimmed milk in Tris-buffered saline–Tween (TBS-T) at room temperature for 1 h. After washing, the membranes were incubated overnight in respective primary antibody solutions (anti-phospho-ERK, anti-phospho-JNK, anti-phospho-p38, anti-collagen I, anti-GAPDH or anti-β-actin antibodies) at 4 °C. The membranes were washed with TBS-T and incubated with a horseradish peroxidase-conjugated secondary antibody solution for 1 h at room temperature. They were washed again with TBS-T and PBS and developed using an enhanced chemiluminescence reagent. Images of the immunoblots were scanned with an iBright™ CL1500 Imaging System (Thermo Fisher Scientific, Waltham, MA, USA). The band intensities of phospho-ERK, phospho-JNK, phospho-p38, and collagen I proteins were quantified by densitometric analysis using the ImageJ software 1.8.0 (National Institutes of Health, NIH, Bethesda, MD, USA). To normalize for protein loading, antibodies against β-actin and GAPDH were used, and phospho-ERK 1/2, phospho-JNK, and phospho-p38 phosphorylation levels were expressed relative to those of […]. The levels of collagen I were normalized to those of GAPDH. Images of raw Western blots are shown in the Supplementary Data.

[5] = test system: intracellular ROS in RAW 264.7 cells; assay: LPS-induced intracellular ROS, DCFH-DA fluorescence, in RAW 264.7 cells; format: cell-based, murine; conditions: peptides and carnosine 500 μM pretreated 2 h, then LPS 0.1 μg/mL 24 h, n = 3
Experimental: RAW 264.7 cells (7.5 × 10^4 cells/mL) were seeded on sterile cover slips placed in the wells of a 12-well plate and cultured for 24 h. The cells were pretreated with peptide solutions (500 μM) and carnosine (500 μM) for 2 h and stimulated with LPS (0.1 μg/mL) for 24 h. Subsequently, they were treated with a 10 μM DCFH-DA solution for 30 min and washed with PBS. The washed cells were fixed with a 4% paraformaldehyde solution for 5 min, and intracellular ROS fluorescence was observed using a DMi8 inverted microscope (Leica, Wetzlar, Germany).

HaCaT cells = assay: Cell viability (MTT assay) in HaCaT cells; format: cell-based, human; conditions: 0.032-500 µM, 24 h
Experimental: Cell viability was assessed using an MTT assay. HaCaT cells (1.0 × 10^4 cells/mL) were seeded in a 96-well plate and cultured for 24 h. Thereafter, the cells were treated with the peptide solution (0–500 µM) for 24 h. […] The MTT solution was prepared by dissolving it in phosphate-buffered saline (PBS) at a concentration of 5 mg/mL. 10 μL of the prepared MTT solution was added to each well, and the plate was incubated for 4 h. After removing the culture medium, 200 μL of dimethyl sulfoxide (DMSO) was added to each well to solubilize any deposited formazan. The absorbance at 560 nm was measured using an Epoch microplate Spectrophotometer (BioTek, Winooski, VT, USA).

[6] = test system: collagen type I alpha 1 chain (Col1a1) mRNA; assay: Collagen I (Col1a1) mRNA level in HaCaT cells (RT-PCR); format: cell-based, human; conditions: peptide 500 μM, normalized to Gapdh, n = 3
Experimental: The peptide and control groups were pretreated with 500 and 0 μM of the peptide solution, respectively, for 2 h, followed by stimulation with 0.1 μg/mL of LPS for 24 h. Total cellular RNA was isolated using the RNeasy Mini Kit (Qiagen, Santa Clara, CA, USA). Total RNA was used to synthesize complementary DNA (cDNA) using the PrimeScript™ 1st strand cDNA synthesis kit (TaKaRa, Kusatsu, Japan). The sequences of oligonucleotide primers for amplifying inducible nitric oxide synthase (iNos), cyclooxygenase-2 (Cox-2), and collagen type I alpha 1 chain (Col1a1) synthesized from Bioneer (Daejeon, Republic of Korea) and glyceraldehyde-3-phosphate dehydrogenase (Gapdh) synthesized from Macrogen (Seoul, Republic of Korea) are listed in Table 1. […] The mRNA levels of iNos, Cox-2, and Col1a1 were normalized to that of Gapdh, which is a housekeeping gene. The mRNA levels were quantified using the 2^-ddCt method based on the Ct values.

Substance: galloyl-QHGV [Ga-QHGV]
- decrease of p-JNK level (phospho-JNK): 18%
- ABTS radical scavenging activity ([1]; 0.01 mM, 5 min at room temperature, absorbance 734 nm, n = 3): 74%
- Anti-oxidant Rank (ABTS radical scavenging activity rank) ([1]; Table S1, rank by IC50, 1 = most active): 2
- IC50 ([1]; Table S1, tested 0.000001-1 mM, 5 min at room temperature, absorbance 734 nm, calculated by GraphPad Prism 5, unit inferred): 4.58 µM
- reduction of LPS-induced Cox-2 mRNA level [2]: 22%
- reduction of LPS-induced iNos mRNA level [3]: 60%
- increase of collagen I protein level [4]: 354%
- decrease of intracellular ROS levels compared to the LPS-treated group [5]: reduced LPS-induced ROS levels to the greatest extent
- cytotoxicity (in words) (HaCaT cells): no cytotoxicity
- increase of collagen I mRNA level compared with the negative control group [6]: 140%
